What is called IC50 is the concentration at which inhibition is half-maximal.

Molecules are shown by their SMILES.

Results on 27 compounds are retold here after ChEMBL document CHEMBL1136599, “Design, synthesis, and structure-activity relationships of substituted piperazinone-based transition state factor Xa inhibitors” (Bioorg Med Chem Lett, 2003).

In assay [1] the target is Coagulation factor X (Homo sapiens, UniProt P00742). Description: In vitro inhibitory activity against factor Xa.
Assay [2] concerns the target Prothrombin (Homo sapiens, UniProt P00734). Description: In vitro inhibitory activity against serine protease thrombin.

Coagulation factor X, sequence (P00742 41-179 limits assumed): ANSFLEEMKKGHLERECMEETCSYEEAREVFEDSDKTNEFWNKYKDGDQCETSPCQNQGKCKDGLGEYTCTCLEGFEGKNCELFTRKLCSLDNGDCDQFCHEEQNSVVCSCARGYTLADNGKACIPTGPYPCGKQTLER
Coagulation factor X, sequence (P00742 235-488 limits assumed): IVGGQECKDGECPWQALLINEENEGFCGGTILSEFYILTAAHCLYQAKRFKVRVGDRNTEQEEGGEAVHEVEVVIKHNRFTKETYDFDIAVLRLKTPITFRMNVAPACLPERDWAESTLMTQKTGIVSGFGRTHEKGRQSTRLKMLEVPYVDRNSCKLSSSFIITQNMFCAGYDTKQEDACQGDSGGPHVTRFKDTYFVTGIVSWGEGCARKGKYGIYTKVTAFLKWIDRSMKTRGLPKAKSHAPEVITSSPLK

As to `N=C(N)NCCC[C@H](NC(=O)CN1CC(=O)N[C@H](CCCNC(=N)N)C1=O)C(=O)c1nccs1`, the results for the IC50 in assay [1] and in assay [2] were 0.021 µM and 200 µM, respectively.
The corresponding values for `CCOC(=O)C[C@H]1C(=O)N(CC(=O)N[C@@H](CCCN=C(N)N)C(=O)c2nccs2)CCN1S(=O)(=O)Cc1ccccc1` are 0.032 µM and 4 µM.
The corresponding values for `N=C(N)NCCC[C@H](NC(=O)CN1CCN(S(=O)(=O)Cc2ccccc2)[C@@H](CCCNC(=N)N)C1=O)C(=O)c1nccs1` are 0.003 µM and 12 µM.
On to `N=C(N)NCCCC(NC(=O)CNC(=O)[C@@H](Cc1ccccc1)NS(=O)(=O)Cc1ccccc1)C(=O)c1nccs1` (stereo not given in full), for which inhibition in assay [1] was half-maximal at 0.002 µM (IC50).
For `CS(=O)(=O)N1CCN(CC(=O)N[C@@H](CCCNC(=N)N)C(=O)c2nccs2)C(=O)[C@@H]1Cc1ccccc1`, the figures for the IC50 in assay [1] and in assay [2] were 0.459 µM and 0.642 µM, respectively.
The corresponding values for `N=C(N)NCCC[C@H](NC(=O)CN1CCN(S(=O)(=O)Cc2ccccc2)[C@H](CO)C1=O)C(=O)c1nccs1` are 0.006 µM and 2 µM.
The corresponding values for `N=C(N)NCCC[C@H](NC(=O)CN1CCN[C@@H](CCCNC(=N)N)C1=O)C(=O)c1nccs1` are 0.02 µM and 12 µM.
Take `N=C(N)NCCC[C@H](NC(=O)CN1CCN[C@@H](Cc2ccccc2)C1=O)C(=O)c1nccs1`: the IC50 stood at 0.888 µM in assay [1] and 2 µM in assay [2].
The corresponding values for `N=C(N)NCCC[C@H](NC(=O)CN1CCN(S(=O)(=O)Cc2ccccc2)[C@@H](CC(=O)O)C1=O)C(=O)c1nccs1` are 0.37 µM and 325 µM.
The corresponding values for `N=C(N)NCCC[C@H](NC(=O)CN1C=CN[C@@H](CCCNC(=N)N)C1=O)C(=O)c1nccs1` are 0.307 µM and 140 µM.
As for `N=C(N)NCCCC(NC(=O)CN1CCN(S(=O)(=O)Cc2ccccc2)CC1=O)C(=O)c1nccs1` (stereo not given), in assay [1], the IC50 came to 0.004 µM.
With `COC(=O)C[C@@H]1C(=O)N(CC(=O)N[C@@H](CCCNC(=N)N)C(=O)c2nccs2)CCN1S(=O)(=O)Cc1ccccc1`, the IC50 in assay [1] stood at 0.008 µM; in assay [2], 5 µM.
The corresponding values for `COC(=O)C[C@H]1C(=O)N(CC(=O)N[C@@H](CCCNC(=N)N)C(=O)c2nccs2)CCN1S(=O)(=O)Cc1ccccc1` are 0.085 µM and 1 µM.
Take `N=C(N)NCCC[C@H](NC(=O)CN1CCN(S(=O)(=O)Cc2ccccc2)[C@H](CC(=O)N2CCCCC2)C1=O)C(=O)c1nccs1`: the values for the IC50 in assay [1] and in assay [2] were 0.037 µM and 8 µM, respectively.
The corresponding values for `N=C(N)NCCC[C@H](NC(=O)CN1CCN(S(=O)(=O)Cc2ccccc2)[C@H](CCC(=O)O)C1=O)C(=O)c1nccs1` are 0.004 µM and 5 µM.
On to `N=C(N)NCCC[C@H](NC(=O)CN1CCN[C@H](Cc2ccccc2)C1=O)C(=O)c1nccs1`, for which the IC50 in assay [2] worked out at 22 µM.
`N=C(N)NCCC[C@H](NC(=O)CN1CCN(S(=O)(=O)Cc2ccccc2)[C@@H](CC(=O)N2CCCCC2)C1=O)C(=O)c1nccs1`: the IC50 in assay [1] is 0.154 µM; in assay [2], 60 µM.
The corresponding values for `N=C(N)NCCC[C@H](NC(=O)CN1CCN(S(=O)(=O)Cc2ccccc2)[C@@H](Cc2ccccc2)C1=O)C(=O)c1nccs1` are 0.0009 µM and 0.507 µM.
Consider `CS(=O)(=O)N1CCN(CC(=O)N[C@@H](CCCN=C(N)N)C(=O)c2nccs2)C(=O)[C@H]1Cc1ccccc1`, for which the results for the IC50 in assay [1] and in assay [2] were 0.144 µM and 2 µM, respectively.
The corresponding values for `N=C(N)NCCC[C@H](NC(=O)CN1CCN(S(=O)(=O)Cc2ccccc2)[C@H](CCCNC(=N)N)C1=O)C(=O)c1nccs1` are 0.013 µM and 3 µM.
In turn, `N=C(N)NCCC[C@@H](NS(=O)(=O)Cc1ccccc1)C(=O)NC(=O)CN[C@H](CCCNC(=N)N)C(=O)c1nccs1` gave an IC50 in assay [1] of 0.013 µM.
`N=C(N)NCCC[C@H](NC(=O)CN1CC(=O)N[C@@H](CCCNC(=N)N)C1=O)C(=O)c1nccs1`: the IC50 worked out at 0.011 µM in assay [1] and 150 µM in assay [2].
Consider `COC(=O)CC[C@@H]1C(=O)N(CC(=O)N[C@@H](CCCNC(=N)N)C(=O)c2nccs2)CCN1S(=O)(=O)Cc1ccccc1`, for which the IC50 in assay [1] worked out at 0.001 µM; in assay [2], 2 µM.
The corresponding values for `CCOC(=O)C[C@@H]1C(=O)N(CC(=O)N[C@@H](CCCN=C(N)N)C(=O)c2nccs2)CCN1S(=O)(=O)Cc1ccccc1` are 0.007 µM and 3 µM.
The corresponding values for `N=C(N)NCCC[C@H](NC(=O)CN1CCN(S(=O)(=O)Cc2ccccc2)[C@H](CC(=O)O)C1=O)C(=O)c1nccs1` are 0.031 µM and 40 µM.
The corresponding values for `N=C(N)NCCC[C@H](NC(=O)CN1CCN(S(=O)(=O)Cc2ccccc2)[C@H](Cc2ccccc2)C1=O)C(=O)c1nccs1` are 0.059 µM and 2 µM.
In the case of `N=C(N)NCCC[C@H](NC(=O)CN1CCN(S(=O)(=O)Cc2ccccc2)[C@H](CCC(=O)N2CCCCC2)C1=O)C(=O)c1nccs1`, the IC50 in assay [1] is 0.004 µM; in assay [2], 3 µM.
